In ChEMBL document CHEMBL1201862, “PubChem BioAssay data set” (2004):
Blank lines part the entries; values can stand above or below the molecule they belong to. Active and inactive are the calls of the source.

Columns and labels:
Estrogen receptor beta = Estrogen receptor beta (Homo sapiens, UniProt Q92731);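 note: recombinant ER-beta bound to coactivator SRC1 peptide in presence of estradiol agonist; inhibitors block coactivator peptide binding and lower the FRET signal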
[1] = PAX5 cellular inhibition readout – cell-based, plate reader, dry powder samples, selectivity assay for PAX8 inhibitor project, dose response (AID 743047); type: functional;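 note: HEK293 cells carrying a Pax5 driven CD19 promoter luciferase reporter; potency of inhibitors that lower reporter luminescence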
[2] = COV434 cell viability loss – plate reader, dry powder, SA7, cytotoxicity control for PAX8 inhibitor project, dose response (AID 743145); type: functional, cell-based
[3] = inhibitors acting on PAX2 in cells – cell-based, plate reader, dry powder samples, selectivity assay for PAX8 inhibitor project, dose response (AID 743048); type: functional;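 note: HEK293 cells carrying a WT1 promoter luciferase reporter driven by expressed Pax2; potency is for inhibition of Pax2 driven reporter signal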
[4] = OV-90 cell viability loss – plate reader, dry powder, SA8, PAX8 inhibitor project, dose response (AID 743149); type: functional, cell-based
[5] = COV362 cell viability loss – plate reader, dry powder, SA12, cytotoxicity control for PAX8 inhibitor project, dose response (AID 743144); type: functional, cell-based
[6] = PAX8-dependent cell viability loss – plate reader, dry powder, dose response (AID 743049); type: functional, cell-based
Paired box protein Pax-8 = Paired box protein Pax-8 (Homo sapiens, UniProt Q06710); experiment: PAX8 transcriptional activity inhibition in RMG-I – RMG-I cells, luciferase, cherry-pick, dose response (AID 687027); type: functional, cell-based;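 note: luciferase reporter driven by Pax8 target thyroperoxidase promoter measured by SteadyGlo luminescence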
Chain of Paired box protein Pax-8 (Q06710 whole entry): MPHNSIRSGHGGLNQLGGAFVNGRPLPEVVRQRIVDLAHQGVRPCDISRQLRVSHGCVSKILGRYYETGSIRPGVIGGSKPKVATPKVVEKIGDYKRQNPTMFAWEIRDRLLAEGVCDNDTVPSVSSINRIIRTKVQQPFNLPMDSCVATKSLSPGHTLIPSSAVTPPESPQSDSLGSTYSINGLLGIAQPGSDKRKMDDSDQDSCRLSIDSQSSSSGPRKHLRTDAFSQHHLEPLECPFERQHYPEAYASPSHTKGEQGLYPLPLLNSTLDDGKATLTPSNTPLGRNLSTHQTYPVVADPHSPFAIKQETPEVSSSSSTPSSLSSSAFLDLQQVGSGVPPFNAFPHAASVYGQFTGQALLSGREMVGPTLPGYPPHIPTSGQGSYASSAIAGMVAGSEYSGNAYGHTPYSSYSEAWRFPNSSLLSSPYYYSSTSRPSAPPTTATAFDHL

[7] = OVCAR-3 cell viability loss – plate reader, dry powder samples, PAX8 inhibitor project, dose response (AID 743044); type: functional, cell-based
[8] = target: RNA-editing ligase 1, mitochondrial (Trypanosoma brucei brucei, UniProt P86926); experiment: inhibition of trypanosome RNA editing ligase – biochemical, fluorescence, Trypanosoma brucei, dose response (AID 1117295); type: functional
Chain of RNA-editing ligase 1, mitochondrial (P86926 whole entry): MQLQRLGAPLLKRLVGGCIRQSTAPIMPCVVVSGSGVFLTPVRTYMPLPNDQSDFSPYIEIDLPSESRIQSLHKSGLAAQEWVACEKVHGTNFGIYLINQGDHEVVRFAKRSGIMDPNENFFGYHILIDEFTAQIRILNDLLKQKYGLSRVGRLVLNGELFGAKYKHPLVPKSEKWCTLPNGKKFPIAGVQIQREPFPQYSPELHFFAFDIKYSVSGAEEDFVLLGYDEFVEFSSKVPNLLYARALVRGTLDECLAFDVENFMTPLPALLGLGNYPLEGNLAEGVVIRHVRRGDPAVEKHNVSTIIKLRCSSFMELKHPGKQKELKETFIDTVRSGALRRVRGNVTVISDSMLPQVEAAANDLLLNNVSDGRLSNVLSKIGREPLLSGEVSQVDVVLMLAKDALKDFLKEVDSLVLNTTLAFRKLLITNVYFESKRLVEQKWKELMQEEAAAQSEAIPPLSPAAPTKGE

[9] = inhibition of ADAM10 peptide cleavage – biochemical, FRET peptide substrate, recombinant human ADAM10, selectivity assay for ADAM17 exosite inhibitor project, dose response (AID 743259);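 note: ADAM10 enzyme cleaving a FRET peptide substrate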
[10] = target: Disintegrin and metalloproteinase domain-containing protein 17 (Homo sapiens, UniProt P78536); experiment: exosite inhibitors of ADAM17, dose response, biochemical (AID 743260)
Chain of Disintegrin and metalloproteinase domain-containing protein 17 (P78536 whole entry, the tested form may be a part): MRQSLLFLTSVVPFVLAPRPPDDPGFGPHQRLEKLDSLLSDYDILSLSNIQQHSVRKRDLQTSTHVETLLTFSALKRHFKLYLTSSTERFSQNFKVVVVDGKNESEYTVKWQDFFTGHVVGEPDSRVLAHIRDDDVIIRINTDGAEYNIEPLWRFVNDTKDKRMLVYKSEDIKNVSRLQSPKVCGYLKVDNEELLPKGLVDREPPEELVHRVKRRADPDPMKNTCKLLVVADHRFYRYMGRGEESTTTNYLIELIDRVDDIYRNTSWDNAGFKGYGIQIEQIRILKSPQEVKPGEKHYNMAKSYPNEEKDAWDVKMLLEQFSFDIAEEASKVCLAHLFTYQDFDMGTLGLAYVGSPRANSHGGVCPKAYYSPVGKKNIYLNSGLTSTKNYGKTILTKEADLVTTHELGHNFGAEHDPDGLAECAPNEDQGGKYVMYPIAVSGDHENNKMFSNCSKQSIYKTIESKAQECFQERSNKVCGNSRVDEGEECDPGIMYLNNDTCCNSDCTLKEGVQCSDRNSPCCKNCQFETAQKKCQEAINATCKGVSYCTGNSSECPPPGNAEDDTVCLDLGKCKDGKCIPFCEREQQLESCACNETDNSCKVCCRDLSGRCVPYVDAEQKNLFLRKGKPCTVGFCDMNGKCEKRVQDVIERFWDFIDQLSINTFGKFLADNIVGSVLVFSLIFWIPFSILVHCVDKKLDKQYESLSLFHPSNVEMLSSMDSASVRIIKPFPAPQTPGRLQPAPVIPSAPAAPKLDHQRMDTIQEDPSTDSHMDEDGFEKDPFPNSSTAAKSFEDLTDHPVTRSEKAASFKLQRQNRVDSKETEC

[11] = target: Endoplasmic reticulum aminopeptidase 1 (Homo sapiens, UniProt Q9NZ08); experiment: inhibition of human ERAP1 enzyme activity – biochemical, cherry-pick, set 2, plate reader, dose response (AID 743314)
Chain of Endoplasmic reticulum aminopeptidase 1 (Q9NZ08 whole entry): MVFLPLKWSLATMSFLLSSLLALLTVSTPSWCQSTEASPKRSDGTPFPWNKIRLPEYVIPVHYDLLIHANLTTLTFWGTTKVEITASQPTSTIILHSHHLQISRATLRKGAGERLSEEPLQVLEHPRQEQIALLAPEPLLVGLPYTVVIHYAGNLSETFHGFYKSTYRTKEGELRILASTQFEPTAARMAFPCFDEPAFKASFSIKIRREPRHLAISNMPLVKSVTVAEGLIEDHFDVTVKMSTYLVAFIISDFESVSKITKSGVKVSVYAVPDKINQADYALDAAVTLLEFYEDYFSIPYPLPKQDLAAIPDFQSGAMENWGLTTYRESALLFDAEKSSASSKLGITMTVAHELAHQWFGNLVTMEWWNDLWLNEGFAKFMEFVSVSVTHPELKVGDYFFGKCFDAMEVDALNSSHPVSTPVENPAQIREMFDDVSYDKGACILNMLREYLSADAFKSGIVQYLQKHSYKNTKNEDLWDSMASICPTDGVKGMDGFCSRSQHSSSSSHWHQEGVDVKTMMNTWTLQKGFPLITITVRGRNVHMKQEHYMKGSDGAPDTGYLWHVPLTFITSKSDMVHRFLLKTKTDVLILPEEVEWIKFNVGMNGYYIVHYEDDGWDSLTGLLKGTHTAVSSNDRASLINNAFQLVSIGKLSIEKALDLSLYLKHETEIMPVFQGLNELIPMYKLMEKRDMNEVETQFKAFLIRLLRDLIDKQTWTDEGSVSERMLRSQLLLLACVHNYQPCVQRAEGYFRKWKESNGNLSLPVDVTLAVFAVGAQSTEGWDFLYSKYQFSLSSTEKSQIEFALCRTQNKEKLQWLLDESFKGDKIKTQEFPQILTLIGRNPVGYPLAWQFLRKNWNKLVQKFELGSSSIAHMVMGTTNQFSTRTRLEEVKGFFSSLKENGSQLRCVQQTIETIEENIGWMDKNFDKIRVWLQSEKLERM

[12] = Dd2 parasite growth inhibition in erythrocytes – SYBR Green, dry powder samples, set 9, dose response (AID 1159568); type: functional, cell-based
[13] = Potency on glucagon-like peptide 1 release, dose-response in NCI-H716 cell line, half maximal inhibitory concentration (AID 1117344); type: functional, cell-based
[14] = glucagon-like peptide-1 release potency in STC-1, concentration-response, half-maximal inhibitory concentration in the STC-1 line (AID 1117345); type: functional, cell-based
Genome polyprotein = Genome polyprotein (Hepatitis C virus, UniProt Q2Q167); experiment: disruption of hepatitis C core self-association – biochemical, TR-FRET, dose response (AID 2159); parameters: species or system Hepacivirus hominis;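 note: blocks dimerization of HCV core protein measured by TR-FRET between tagged core106 pairs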
Chain of Genome polyprotein (Q2Q167 whole entry): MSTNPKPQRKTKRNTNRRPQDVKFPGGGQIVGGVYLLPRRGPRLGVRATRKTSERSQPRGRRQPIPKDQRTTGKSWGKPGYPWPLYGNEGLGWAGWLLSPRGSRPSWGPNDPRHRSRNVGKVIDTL

Chain of Estrogen receptor beta (Q92731 whole entry): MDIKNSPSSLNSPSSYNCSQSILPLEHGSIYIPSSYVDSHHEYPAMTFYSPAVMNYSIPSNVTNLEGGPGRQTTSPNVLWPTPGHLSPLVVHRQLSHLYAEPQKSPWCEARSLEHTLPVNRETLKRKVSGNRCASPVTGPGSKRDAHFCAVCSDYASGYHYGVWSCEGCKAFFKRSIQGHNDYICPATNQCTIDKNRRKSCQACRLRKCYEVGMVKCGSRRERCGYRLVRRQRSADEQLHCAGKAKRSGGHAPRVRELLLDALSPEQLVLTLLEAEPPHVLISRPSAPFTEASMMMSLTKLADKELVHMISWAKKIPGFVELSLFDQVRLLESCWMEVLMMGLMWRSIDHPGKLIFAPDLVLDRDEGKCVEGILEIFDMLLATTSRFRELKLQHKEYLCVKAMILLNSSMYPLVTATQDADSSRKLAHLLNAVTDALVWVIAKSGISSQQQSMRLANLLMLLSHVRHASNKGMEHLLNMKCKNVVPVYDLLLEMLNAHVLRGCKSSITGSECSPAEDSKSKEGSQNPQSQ

IC50 (Estrogen receptor beta): 5.09 µM (active)
Structure (SMILES): CCC(=O)Nc1ccc(C(=O)Cn2nc(C(=O)O)c3ccccc3c2=O)cc1

Structure (SMILES): Cc1ccc(S(=O)(=O)Nc2ccc3c(c2)C(=O)N([C@@H](C)CO)C[C@H](C)[C@@H](CN(C)C(=O)Nc2cccc4ccccc24)OCCCC[C@@H](C)O3)cc1
AC50 [1]: 8.21 µM (active)
AC50 [2]: 0.0021 µM (active)
AC50 [3]: 7.25 µM (active)
AC50 [4]: 22.8 µM (active)
AC50 [5]: 37.3 µM (active)
AC50 [6]: 18.2 µM (active)
AC50 (Paired box protein Pax-8): 4.15 µM (active)
AC50 [7]: 13.3 µM (active)

IC50 [8]: > 96.6 µM (inactive)
Structure (SMILES): COC(=O)C1=C(C)N(Cc2cccc(C(F)(F)F)c2)C(NCc2cccc(C(F)(F)F)c2)=NC1c1ccccc1C(F)(F)F (stereo unspecified)

IC50 [8]: 19.7 µM (inactive)
Structure (SMILES): CCC(C)NC(=O)C1CCN(S(=O)(=O)c2ccc3[nH]c(=O)oc3c2)CC1 (stereo unspecified)

IC50 [10]: > 69.5 µM (inactive)
Structure (SMILES): Cc1ccc(S(=O)(=O)N2C[C@H]3C(=O)C[C@@H](c4ccccc4)N(S(=O)(=O)c4ccc(C)cc4)[C@H]3C[C@H]2c2cccc3ccccc23)cc1
IC50 [9]: > 69.5 µM (inactive)

AC50 [11]: 7.81 µM (active)
Structure (SMILES): CCNC(=O)[C@H]1[C@H](CO)[C@H]2Cn3c(ccc(/C=C/c4ccccc4)c3=O)[C@@H]1N2C(=O)C1CCCC1

Structure (SMILES): CCCNC(=O)N1[C@H](C#N)[C@H](c2ccccc2-c2ccc(OC)cc2)[C@@H]1CO
AC50 [12]: 3.54 µM (active)

Structure (SMILES): CCCOC(C(=O)OC1CCN(C)CC1)(c1ccccc1)c1ccccc1
IC50 [13]: > 40 µM (inactive)
IC50 [14]: 23.8 µM (inactive)

Structure (SMILES): CCCC#Cc1ccc([C@@H]2[C@H](C#N)N(S(=O)(=O)c3cccc(F)c3)[C@H]2CO)cc1
AC50 [1]: 14.2 µM (active)
AC50 [2]: 63.8 µM (active)
AC50 [3]: 15.6 µM (active)
AC50 [4]: 26.9 µM (active)
AC50 [5]: 35.2 µM (active)
AC50 [6]: 17 µM (active)
AC50 (Paired box protein Pax-8): 5.57 µM (active)
AC50 [7]: 31.9 µM (active)

IC50 (Genome polyprotein): > 49.8 µM (not active)
Structure (SMILES): O=[N+]([O-])c1ccc(Cl)c2c1C1C=CCC1C(c1ccccn1)N2 (stereo unspecified)
